Measurements published in patent EP0066351A1, “Arylethanol amine derivatives, their preparation and use in pharmaceutical compositions” (priority 1981, dated 1982).
Structures can show the parent of a compound that is named as a salt. Where two headings read alike, the source gives them in different places.

What was measured:
Female CFLP mice [1] = assay: Hypoglycaemic activity: blood glucose after subcutaneous glucose load in fasted mice; type: in vivo; conditions: glucose 1 g/kg s.c. 30 minutes after dosing, area over 2 hours vs water controls
Experimental: Female CFLP mice, each weighing approximately 25 g, were fasted for 24 hours prior to the study. The compounds under study were administered orally as an aqueous solution to each of 7 mice. 7 mice were given water as a control. 30 minutes later a blood sample (20 µl) was obtained from the tail for the analysis of blood glucose. Immediately after taking this blood sample, glucose (1 g/kg body weight) was administered subcutaneously to each mouse. Blood samples were then obtained from each mouse at 30 minute intervals for 120 minutes.
Compounds that produced a significant (P<0.05) reduction of blood glucose, compared with control mice given water, at any time interval, were considered active. The area under the blood glucose curve over the 2 hour period after the administration of the glucose was calculated for each compound and compared with the value for control animals.

Female CFLP mice [2] = assay: Effect on energy expenditure and food intake of mice; type: in vivo; conditions: Mus musculus; for response vs control in vivo at 25.5 mg/kg / response vs control in vivo at 23.8 mg/kg / response vs control in vivo at 18.8 mg/kg / response vs control in vivo at 21.3 mg/kg / response vs control in vivo at 20.7 mg/kg / response vs control in vivo at 19.6 mg/kg / response vs control in vivo at 25.6 mg/kg / response vs control in vivo at 20.8 mg/kg / response vs control in vivo at 26.7 mg/kg / response vs control in vivo at 23.6 mg/kg / response vs control in vivo at 21.2 mg/kg: po, 21 h; for response vs control in vivo at 18.9 mg/kg: dose 18.9 mg/kg po, mice, 21 hours after dosing, percentage of mice dosed with water
Experimental: Female CFLP mice each weighing approximately 24 g, were given food and water ad lib before and during the experiment. The compounds were dissolved in water by addition of one mole of hydrochloric acid per mole of compound and these solutions were administered orally to each of 12 mice. A further 12 mice were dosed orally with water. The mice were placed in boxes through which air was drawn and the oxygen content of the air leaving the boxes was measured. The energy expenditure of the mice was calculated for 21 hours after dosing from the volume of air leaving the boxes and its oxygen content following the principles described by J B de V Weir, J Physiol (London) 109, 1-9, (1949). The food intake of the mice was measured over this same period of 21 hours. The results are expressed as a percentage of the mean food intake or rate of energy expenditure of the mice dosed with water.

Rat hearts = assay: Cardiac activity: rat hearts perfused by the Langendorff procedure
Experimental: Rat hearts were perfused by the Langendorff procedure as follows: • Hearts were dissected free within 30 seconds of death and reverse perfused via the aorta and coronary vessels with Krebs-Ringer bicarbonate solution (pH 7.4, 37 °C) gassed with 95% oxygen:5% carbon dioxide at a flow rate between 8-12 cm^3/minute. Responses were observed after injection of drug dissolved in isotonic saline into the perfusion media.
Results are expressed as a percentage of the maximum response due to salbutamol.

platelets = assay: Collagen-induced platelet aggregation in human whole blood in vitro; type: cell-based; conditions: collagen EC50 in presence of compound divided by control EC50, 3 mins preincubation
Experimental: Collagen-induced platelet aggregation in human whole blood in vitro.
Collagen added to stirred citrated blood causes platelet aggregation. As the platelets aggregate, the concentration of single platelets falls. […] Inhibitors of aggregation, such as aspirin and dipyridamole, reduce the response to collagen.
Blood drawn from volunteers who denied taking aspirin within the previous seven days was mixed with 0.1 vol 129 mM trisodium citrate, dispensed into 0.5 ml aliquots and kept at 25°. Collagen (Hormon-Chemie, Munich) or 154 mM NaCl (control) was added to each aliquot of blood stirred at 1100 rpm in an aggregometer at 37° after 3 mins preincubation with compound or appropriate solvent. Aggregates were fixed by addition of 0.5 vol 4.5% formaldehyde or 0.05 vol phosphate-buffered glutaraldehyde. Single platelets were counted electronically. Responses, expressed as per cent fall in platelet count, were obtained to a range of collagen concentrations. The concentration producing a 50% maximal effect (EC50) was estimated from log10 concentration-response curves. Dose-ratios were calculated by dividing the EC50 obtained in the presence of compound under test by the control EC50.

rat ear = assay: Topical anti-inflammatory activity: croton oil induced inflammation in the rat ear; type: in vivo; conditions: dose 1.0 mg/rat ear, topical in 1% croton oil in tetrahydrofuran; ear weight after 6 hours; active = significant (5% level) reduction vs non-drug treated control
Experimental: The method used is based on that described by G. Tonelli et al (Endocrinology, 77, 625-634, 1965). An inflammation is induced in the rat ear by the application of 50 µl of a 1% solution of croton oil in tetrahydrofuran, test compounds being dissolved in the irritant vehicle. After 6 hours the inflammation is assessed by killing the animals and weighing the ears. Topical anti-inflammatory activity of a compound is generally considered to be shown when a significant (5% level) reduction in ear weight is seen compared to non-drug treated control.

[3] = read-out: Mean Energy Expenditure (%)
[4] = Rattus norvegicus, read-out: Heart Rate
[5] = Rattus norvegicus, read-out: Heart Tension
[6] = final concentration in whole blood 200 µM
[7] = 10 μg added to perfusate, percentage of the maximum response due to salbutamol, perfused rat heart, read-out: Heart Rate
[8] = 10 μg added to perfusate, percentage of the maximum response due to salbutamol, perfused rat heart, read-out: Heart Tension
[9] = final concentration in whole blood 300 µM

COc1ccc(C[C@@H](C)NC[C@H](O)c2cccc(C(F)(F)F)c2)cc1F (racemic) [Example 9, N-[2-(3-Fluoro-4-methoxyphenyl)-1-methylethyl]-2-hydroxy-2-(3-trifluoromethylphenyl)ethanamine hydrobromide-(RR,SS) diastereoisomer]
Reduction in area under Blood glucose curve (%) (Female CFLP mice [1]; dose 2.5 μ moles/kg po): 18% | response vs control in vivo at 25.5 mg/kg (Female CFLP mice [2]; [3]): 115% | response vs control in vivo at 25.5 mg/kg (Female CFLP mice [2]; read-out: Mean Food Intake (%)): 78% | Emax at 0.01 mg (Rat hearts; [4]): 16% | Emax at 0.01 mg (Rat hearts; [5]): 4%

CC(=O)Oc1ccccc1C(=O)O [Aspirin, reference compound]
Dose-ratio (platelets; [6]): 2.4 ± 0.3(3)

OCCN(CCO)c1nc(N2CCCCC2)c2nc(N(CCO)CCO)nc(N3CCCCC3)c2n1 [Dipyridamole, reference compound]
Dose-ratio (platelets; [6]): 3.7 ± 1.1(4)

CC(Cc1ccc(OCc2ccccc2)cc1)NCC(O)c1cccc(C(F)(F)F)c1 (stereo not shown) [Example 1, N-[2-(4-Benzyloxyphenyl)-1-methylethyl]-2-hydroxy-2-(3-trifluoromethylphenyl)ethanamine]
Reduction in area under Blood glucose curve (%) (Female CFLP mice [1]; dose 12.5 μ moles/kg po): 36% | response vs control in vivo at 23.8 mg/kg (Female CFLP mice [2]; [3]): 115% | response vs control in vivo at 23.8 mg/kg (Female CFLP mice [2]; read-out: Mean Food Intake (%)): 100% | Emax at 0.01 mg (Rat hearts; [7]): 0% | Emax at 0.01 mg (Rat hearts; [8]): 7%

CC(Cc1ccc(O)cc1)NCC(O)c1cccc(C(F)(F)F)c1 (stereo not shown) [Example 2, N-[2-(4-Hydroxyphenyl)-1-methylethyl]-2-hydroxy-2-(3-trifluoromethylphenyl)ethanamine]
Reduction in area under Blood glucose curve (%) (Female CFLP mice [1]; dose 12.5 μ moles/kg po): 59% | response vs control in vivo at 18.8 mg/kg (Female CFLP mice [2]; [3]): 126% | response vs control in vivo at 18.8 mg/kg (Female CFLP mice [2]; read-out: Mean Food Intake (%)): 90% | Emax at 0.01 mg (Rat hearts; [4]): 73% | Emax at 0.01 mg (Rat hearts; [5]): 64% | Activity (rat ear): Active | Dose-ratio (platelets; [9]): 2.2

COc1ccc(CC(C)NCC(O)c2cccc(C(F)(F)F)c2)cc1OC (stereo not shown) [Example 3, N-[2-(3,4-Dimethoxyphenyl)-1-methylethyl]-2-hydroxy-2-(3-trifluoromethylphenyl)ethanamine]
Reduction in area under Blood glucose curve (%) (Female CFLP mice [1]; dose 12.5 μ moles/kg po): 43% | response vs control in vivo at 21.3 mg/kg (Female CFLP mice [2]; [3]): 109% | response vs control in vivo at 21.3 mg/kg (Female CFLP mice [2]; read-out: Mean Food Intake (%)): 100% | Emax at 0.01 mg (Rat hearts; [7]): 14% | Emax at 0.01 mg (Rat hearts; [8]): 33% | Activity (rat ear): Active

COc1ccc(CC(C)NCC(O)c2cccc(C(F)(F)F)c2)cc1F (stereo not shown) [Example 4, N-[2-(3-Fluoro-4-methoxyphenyl)-1-methylethyl]-2-hydroxy-2 (3-trifluoromethylphenyl)ethanamine]
Reduction in area under Blood glucose curve (%) (Female CFLP mice [1]; dose 1.0 μ moles/kg po): 28% | response vs control in vivo at 20.7 mg/kg (Female CFLP mice [2]; [3]): 113% | response vs control in vivo at 20.7 mg/kg (Female CFLP mice [2]; read-out: Mean Food Intake (%)): 86% | Emax at 0.01 mg (Rat hearts; [4]): 0% | Emax at 0.01 mg (Rat hearts; [5]): 5% | Dose-ratio (platelets; [9]): 2.3

COc1ccc(CC(C)NCC(O)c2cccc(C(F)(F)F)c2)cc1 (stereo not shown) [Example 5, N-[2-(4-Methoxyphenyl)-1-methylethyl]-2-hydroxy-2-(3-trifluoromethylphenyl) ethanamine]
Reduction in area under Blood glucose curve (%) (Female CFLP mice [1]; dose 1.0 μ moles/kg po): 27% | response vs control in vivo at 19.6 mg/kg (Female CFLP mice [2]; [3]): 119% | response vs control in vivo at 19.6 mg/kg (Female CFLP mice [2]; read-out: Mean Food Intake (%)): 88% | Emax at 0.01 mg (Rat hearts; [4]): 0% | Emax at 0.01 mg (Rat hearts; [5]): 8%

COc1cc(CC(C)NCC(O)c2cccc(C(F)(F)F)c2)ccc1OCc1ccccc1 (stereo not shown) [Example 6, N-[2-(4-Benzyloxy-3-methoxyphenyl)-1-methylethyl]-2-hydroxy-2-(3-trifluoromethylphenyl)ethanamine]
response vs control in vivo at 25.6 mg/kg (Female CFLP mice [2]; [3]): 114% | response vs control in vivo at 25.6 mg/kg (Female CFLP mice [2]; read-out: Mean Food Intake (%)): 75% | Emax at 0.01 mg (Rat hearts; [7]): 6% | Emax at 0.01 mg (Rat hearts; [8]): 25%

CC(Cc1ccc(OCc2ccccc2)c(Cl)c1)NCC(O)c1cccc(C(F)(F)F)c1 (stereo not shown) [Example 7, N-[2-(4-Benzyloxy-3-chlorophenyl)-1-methylethyl]-2-hydroxy-2-(3-trifluoromethylphenyl)ethanamine]
Reduction in area under Blood glucose curve (%) (Female CFLP mice [1]; dose 12.5 μ moles/kg po): 28% | Emax at 0.01 mg (Rat hearts; [7]): 0% | Emax at 0.01 mg (Rat hearts; [8]): 0%

CC(Cc1ccc(O)c(Cl)c1)NCC(O)c1cccc(C(F)(F)F)c1 (stereo not shown) [Example 8, N-[2-(3-Chloro-4-hydroxyphenyl)-1-methylethyl]-2-hydroxy-2-(3-trifluoromethylphenyl)ethanamine]
Reduction in area under Blood glucose curve (%) (Female CFLP mice [1]; dose 2.5 μ moles/kg po): 11% | response vs control in vivo at 20.8 mg/kg (Female CFLP mice [2]; [3]): 118% | response vs control in vivo at 20.8 mg/kg (Female CFLP mice [2]; read-out: Mean Food Intake (%)): 88% | Emax at 0.01 mg (Rat hearts; [4]): 23% | Emax at 0.01 mg (Rat hearts; [5]): 8%

CCCCCCCCCCOc1ccc(CC(C)NCC(O)c2cccc(C(F)(F)F)c2)cc1 (stereo not shown) [Example 10, N-[2-(4-^nDecyloxyphenyl)-1-methylethyl)-2-hydroxy-2-(3-trifluoromethylphenyl) ethanamine]
Reduction in area under Blood glucose curve (%) (Female CFLP mice [1]; dose 5.0 μ moles/kg po): 48% | response vs control in vivo at 26.7 mg/kg (Female CFLP mice [2]; [3]): 118% | response vs control in vivo at 26.7 mg/kg (Female CFLP mice [2]; read-out: Mean Food Intake (%)): 89%

CCCCCOc1ccc(CC(C)NCC(O)c2cccc(C(F)(F)F)c2)cc1 (stereo not shown) [Example 11, N-[2-(4-^nPentyloxyphenyl)-1-methylethyl]-2-hydroxy-2-(3-trifluoromethylphenyl) ethanamine]
Reduction in area under Blood glucose curve (%) (Female CFLP mice [1]; dose 2.5 μ moles/kg po): 47% | response vs control in vivo at 23.6 mg/kg (Female CFLP mice [2]; [3]): 118% | response vs control in vivo at 23.6 mg/kg (Female CFLP mice [2]; read-out: Mean Food Intake (%)): 106%

CC(Cc1ccc(OC(C)C)cc1)NCC(O)c1cccc(C(F)(F)F)c1 (stereo not shown) [Example 12, N-(2-(4-Isopropoxyphenyl)-1-methylethyl]-2-hydroxy-2-(3-trifluoromethylphenyl) ethanamine]
Reduction in area under Blood glucose curve (%) (Female CFLP mice [1]; dose 2.5 μ moles/kg po): 52% | response vs control in vivo at 21.2 mg/kg (Female CFLP mice [2]; [3]): 122% | response vs control in vivo at 21.2 mg/kg (Female CFLP mice [2]; read-out: Mean Food Intake (%)): 94%

COc1ccc(CCNCC(O)c2cccc(C(F)(F)F)c2)cc1 (stereo not shown) [Example 13, N-[2-(4-Methoxyphenyl)ethyl]-2-hydroxy-2-(3-trifluoromethylphenyl) ethanamine]
Reduction in area under Blood glucose curve (%) (Female CFLP mice [1]; dose 5.0 μ moles/kg po): 27% | response vs control in vivo at 18.9 mg/kg (Female CFLP mice [2]; [3]): 112% | response vs control in vivo at 18.9 mg/kg (Female CFLP mice [2]; read-out: Mean Food Intake (%)): 104%

COc1ccc(CCC(C)(C)NCC(O)c2cccc(C(F)(F)F)c2)cc1 (stereo not shown) [Example 14, N-[3-(4-Methoxyphenyl)-1,1-dimethylpropyl]-2-hydroxy-2-(3-trifluoromethylphenyl) ethanamine]
Reduction in area under Blood glucose curve (%) (Female CFLP mice [1]; dose 100 μ moles/kg po): 34%
